Test results reported in ChEMBL document CHEMBL4630901 (2021).

Columns and labels:
[1] = target: Sodium-dependent noradrenaline transporter (Homo sapiens) (UniProt P23975); details: Compound concentration 10.0 uM
[2] = target: Histamine H3 receptor (Homo sapiens) (UniProt Q9Y5N1); details: Compound concentration 10.0 uM
[3] = target: Alpha-2B adrenergic receptor (Homo sapiens) (UniProt P18089); details: Compound concentration 10.0 uM
Oryctolagus cuniculus = species: Oryctolagus cuniculus; assay: Inhibition of Purinergic P2X at 10 µM in the Eurofins-Panlabs radioligand binding assay (Eurofins_assay_268700); assay type: protein assay; details: Compound concentration 10.0 uM
[4] = target: Prostacyclin receptor (Homo sapiens) (UniProt P43119); assay: IP (PGI2) Eurofins-Panlabs radioligand binding assay; design: ligand concentration 6 nM
[5] = target: D(3) dopamine receptor (Homo sapiens) (UniProt P35462); details: Compound concentration 10.0 uM
[6] = target: Estrogen receptor (Homo sapiens) (UniProt P03372); details: Compound concentration 10.0 uM
[7] = target: Glutamate NMDA receptor (Rattus norvegicus) (UniProt P35439+Q00959+Q00960+Q00961+Q62645+Q8VHN2+Q9R1M7); details: Compound concentration 10.0 uM
[8] = target: Histamine H1 receptor (Homo sapiens) (UniProt P35367); details: Compound concentration 10.0 uM
[9] = target: Histamine H3 receptor (Homo sapiens) (UniProt Q9Y5N1); details: Compound concentration 10.0 uM; remark: listed apart in the source
[10] = target: T1, Muscarinic acetylcholine receptor M1 (Homo sapiens) (UniProt P11229); details: Compound concentration 10.0 uM
T1 sequence (whole entry): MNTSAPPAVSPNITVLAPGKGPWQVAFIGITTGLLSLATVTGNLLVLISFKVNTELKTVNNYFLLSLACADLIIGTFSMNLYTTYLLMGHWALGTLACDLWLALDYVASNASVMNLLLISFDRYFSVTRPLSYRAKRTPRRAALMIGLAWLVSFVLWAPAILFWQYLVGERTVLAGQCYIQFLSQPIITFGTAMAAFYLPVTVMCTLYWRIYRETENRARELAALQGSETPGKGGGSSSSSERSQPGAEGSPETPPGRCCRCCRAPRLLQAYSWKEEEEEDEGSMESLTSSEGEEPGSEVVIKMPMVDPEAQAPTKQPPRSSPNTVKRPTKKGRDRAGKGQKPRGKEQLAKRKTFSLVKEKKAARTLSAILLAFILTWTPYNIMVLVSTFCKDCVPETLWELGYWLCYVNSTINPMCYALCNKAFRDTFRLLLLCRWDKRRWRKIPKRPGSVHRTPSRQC

[11] = target: T2, Muscarinic acetylcholine receptor M2 (Homo sapiens) (UniProt P08172); details: Compound concentration 10.0 uM
T2 sequence (whole entry): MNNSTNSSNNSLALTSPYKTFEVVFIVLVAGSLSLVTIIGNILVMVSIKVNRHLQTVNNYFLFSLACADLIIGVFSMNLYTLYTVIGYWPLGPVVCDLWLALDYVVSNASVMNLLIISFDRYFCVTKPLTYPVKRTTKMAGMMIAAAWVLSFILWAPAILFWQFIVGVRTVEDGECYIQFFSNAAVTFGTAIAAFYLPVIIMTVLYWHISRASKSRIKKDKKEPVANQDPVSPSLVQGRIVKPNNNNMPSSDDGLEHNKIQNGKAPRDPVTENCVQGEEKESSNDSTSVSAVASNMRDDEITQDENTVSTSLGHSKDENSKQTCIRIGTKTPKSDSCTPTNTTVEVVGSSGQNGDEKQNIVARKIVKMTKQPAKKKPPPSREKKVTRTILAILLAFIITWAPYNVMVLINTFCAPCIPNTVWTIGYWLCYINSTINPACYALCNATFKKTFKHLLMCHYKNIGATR

[12] = target: Glutamate receptor 2 (Homo sapiens) (UniProt P42262); details: Rattus norvegicus; Compound concentration 10.0 uM
[13] = target: 5-hydroxytryptamine receptor 2A (Homo sapiens) (UniProt P28223); details: Compound concentration 10.0 uM
[14] = target: Type-1 angiotensin II receptor (Homo sapiens) (UniProt P30556); details: Compound concentration 10.0 uM
[15] = target: Androgen receptor (Homo sapiens) (UniProt P10275); details: Compound concentration 10.0 uM
[16] = target: Growth hormone secretagogue receptor type 1 (Homo sapiens) (UniProt Q92847); details: Compound concentration 10.0 uM
[17] = target: Progesterone receptor (Homo sapiens) (UniProt P06401); details: Compound concentration 10.0 uM

Measured: inhibition

Sequence of Prostacyclin receptor (Homo sapiens) (P43119 whole entry): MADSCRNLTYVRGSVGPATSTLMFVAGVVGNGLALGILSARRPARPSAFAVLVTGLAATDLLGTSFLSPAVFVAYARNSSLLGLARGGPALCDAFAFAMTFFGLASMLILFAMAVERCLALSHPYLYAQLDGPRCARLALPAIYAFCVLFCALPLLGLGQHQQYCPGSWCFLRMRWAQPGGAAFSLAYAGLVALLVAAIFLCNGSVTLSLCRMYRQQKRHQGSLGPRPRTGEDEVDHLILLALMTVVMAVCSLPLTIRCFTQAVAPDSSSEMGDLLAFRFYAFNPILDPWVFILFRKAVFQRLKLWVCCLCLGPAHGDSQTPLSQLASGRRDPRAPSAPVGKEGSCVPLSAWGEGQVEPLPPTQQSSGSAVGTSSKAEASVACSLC
Sequence of Histamine H3 receptor (Homo sapiens) (Q9Y5N1 whole entry): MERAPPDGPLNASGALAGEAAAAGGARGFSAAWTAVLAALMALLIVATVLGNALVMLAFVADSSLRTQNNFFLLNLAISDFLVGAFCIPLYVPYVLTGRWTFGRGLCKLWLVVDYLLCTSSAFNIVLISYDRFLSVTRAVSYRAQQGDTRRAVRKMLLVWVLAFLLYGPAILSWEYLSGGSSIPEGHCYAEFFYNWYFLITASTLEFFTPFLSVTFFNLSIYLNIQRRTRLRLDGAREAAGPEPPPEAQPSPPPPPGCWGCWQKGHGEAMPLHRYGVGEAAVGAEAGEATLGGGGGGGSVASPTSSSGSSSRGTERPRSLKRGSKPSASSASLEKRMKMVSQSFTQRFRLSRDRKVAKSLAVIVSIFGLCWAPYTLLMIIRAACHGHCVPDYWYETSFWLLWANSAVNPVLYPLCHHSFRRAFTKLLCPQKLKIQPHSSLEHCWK
Sequence of Progesterone receptor (Homo sapiens) (P06401 whole entry): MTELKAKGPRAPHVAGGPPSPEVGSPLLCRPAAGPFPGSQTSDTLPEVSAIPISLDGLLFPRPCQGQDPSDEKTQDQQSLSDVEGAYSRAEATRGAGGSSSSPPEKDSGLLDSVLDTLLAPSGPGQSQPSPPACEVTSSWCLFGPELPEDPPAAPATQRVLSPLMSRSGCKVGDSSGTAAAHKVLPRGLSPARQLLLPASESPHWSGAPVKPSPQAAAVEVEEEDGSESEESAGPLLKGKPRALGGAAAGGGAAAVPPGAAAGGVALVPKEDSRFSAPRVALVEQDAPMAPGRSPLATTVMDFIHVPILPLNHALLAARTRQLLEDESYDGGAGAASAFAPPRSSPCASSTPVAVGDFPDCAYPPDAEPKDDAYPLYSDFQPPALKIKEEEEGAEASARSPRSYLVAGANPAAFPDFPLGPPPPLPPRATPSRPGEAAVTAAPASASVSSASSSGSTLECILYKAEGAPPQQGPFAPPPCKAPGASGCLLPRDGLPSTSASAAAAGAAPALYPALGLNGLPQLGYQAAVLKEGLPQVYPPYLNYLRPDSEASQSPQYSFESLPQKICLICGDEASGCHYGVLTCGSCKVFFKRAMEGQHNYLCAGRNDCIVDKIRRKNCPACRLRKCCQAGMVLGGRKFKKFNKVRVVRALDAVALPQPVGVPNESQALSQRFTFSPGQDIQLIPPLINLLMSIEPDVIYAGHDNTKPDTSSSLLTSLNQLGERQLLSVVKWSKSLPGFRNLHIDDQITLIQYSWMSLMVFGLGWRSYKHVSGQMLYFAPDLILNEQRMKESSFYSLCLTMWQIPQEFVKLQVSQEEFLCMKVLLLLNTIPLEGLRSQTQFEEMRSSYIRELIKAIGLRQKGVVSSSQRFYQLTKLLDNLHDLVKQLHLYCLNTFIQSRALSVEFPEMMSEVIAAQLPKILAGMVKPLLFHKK
Sequence of Alpha-2B adrenergic receptor (Homo sapiens) (P18089 whole entry): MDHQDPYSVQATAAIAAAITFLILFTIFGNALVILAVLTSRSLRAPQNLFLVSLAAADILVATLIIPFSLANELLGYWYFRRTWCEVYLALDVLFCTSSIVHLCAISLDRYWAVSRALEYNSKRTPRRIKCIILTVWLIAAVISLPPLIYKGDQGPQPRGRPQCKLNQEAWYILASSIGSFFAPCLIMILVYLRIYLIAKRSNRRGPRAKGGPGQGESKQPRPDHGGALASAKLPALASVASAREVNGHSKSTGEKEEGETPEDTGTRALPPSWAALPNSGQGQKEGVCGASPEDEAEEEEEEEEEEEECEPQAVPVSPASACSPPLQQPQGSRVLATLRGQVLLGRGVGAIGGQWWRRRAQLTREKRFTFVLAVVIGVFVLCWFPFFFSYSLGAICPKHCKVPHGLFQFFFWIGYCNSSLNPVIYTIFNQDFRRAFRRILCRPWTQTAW
Sequence of 5-hydroxytryptamine receptor 2A (Homo sapiens) (P28223 whole entry): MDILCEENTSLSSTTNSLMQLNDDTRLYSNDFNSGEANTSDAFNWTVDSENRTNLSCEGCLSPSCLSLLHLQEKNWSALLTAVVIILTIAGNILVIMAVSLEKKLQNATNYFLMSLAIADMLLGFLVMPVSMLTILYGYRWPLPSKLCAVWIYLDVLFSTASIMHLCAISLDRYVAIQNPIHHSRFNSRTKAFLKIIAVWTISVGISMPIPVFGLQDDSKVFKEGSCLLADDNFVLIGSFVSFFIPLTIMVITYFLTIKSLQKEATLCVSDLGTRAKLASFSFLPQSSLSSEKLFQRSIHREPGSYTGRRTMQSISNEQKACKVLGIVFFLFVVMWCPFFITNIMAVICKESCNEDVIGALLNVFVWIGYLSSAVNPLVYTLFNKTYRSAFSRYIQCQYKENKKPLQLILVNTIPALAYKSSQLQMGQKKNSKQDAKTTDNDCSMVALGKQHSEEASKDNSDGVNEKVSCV
Sequence of Androgen receptor (Homo sapiens) (P10275 whole entry): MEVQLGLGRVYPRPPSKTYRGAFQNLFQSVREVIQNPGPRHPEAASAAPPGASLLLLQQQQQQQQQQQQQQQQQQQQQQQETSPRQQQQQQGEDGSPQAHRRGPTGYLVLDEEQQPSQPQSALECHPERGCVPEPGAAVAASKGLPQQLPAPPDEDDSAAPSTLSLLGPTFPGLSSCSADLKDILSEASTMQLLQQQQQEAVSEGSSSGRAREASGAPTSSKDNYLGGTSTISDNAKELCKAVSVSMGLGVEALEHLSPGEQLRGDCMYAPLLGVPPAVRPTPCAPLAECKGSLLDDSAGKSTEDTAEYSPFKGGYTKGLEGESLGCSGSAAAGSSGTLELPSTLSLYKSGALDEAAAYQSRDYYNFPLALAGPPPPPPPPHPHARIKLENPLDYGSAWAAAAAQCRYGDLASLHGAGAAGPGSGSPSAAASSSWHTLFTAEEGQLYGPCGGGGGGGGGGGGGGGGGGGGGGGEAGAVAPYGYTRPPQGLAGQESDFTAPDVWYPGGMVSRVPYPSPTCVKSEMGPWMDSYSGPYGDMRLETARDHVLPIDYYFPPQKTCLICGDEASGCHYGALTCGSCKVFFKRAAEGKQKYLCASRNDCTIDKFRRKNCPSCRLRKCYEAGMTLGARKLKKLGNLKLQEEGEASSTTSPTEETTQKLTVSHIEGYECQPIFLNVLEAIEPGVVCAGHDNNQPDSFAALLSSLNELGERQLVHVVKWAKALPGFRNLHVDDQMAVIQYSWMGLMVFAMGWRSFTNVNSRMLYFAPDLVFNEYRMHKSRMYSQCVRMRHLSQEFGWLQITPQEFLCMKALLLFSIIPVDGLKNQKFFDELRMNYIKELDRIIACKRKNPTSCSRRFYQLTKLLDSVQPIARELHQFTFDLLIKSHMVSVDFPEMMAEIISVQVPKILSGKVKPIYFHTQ
Sequence of Growth hormone secretagogue receptor type 1 (Homo sapiens) (Q92847 whole entry): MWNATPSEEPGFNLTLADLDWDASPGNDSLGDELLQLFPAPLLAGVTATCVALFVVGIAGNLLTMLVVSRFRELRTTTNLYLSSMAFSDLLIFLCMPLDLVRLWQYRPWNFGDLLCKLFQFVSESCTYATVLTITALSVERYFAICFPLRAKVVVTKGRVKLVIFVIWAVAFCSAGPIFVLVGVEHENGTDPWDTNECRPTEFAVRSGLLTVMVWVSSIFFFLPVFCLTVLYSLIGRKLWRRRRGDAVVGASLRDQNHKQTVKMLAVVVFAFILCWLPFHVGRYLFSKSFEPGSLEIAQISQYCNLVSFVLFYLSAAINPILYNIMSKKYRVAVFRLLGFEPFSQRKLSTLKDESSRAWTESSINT
Sequence of Type-1 angiotensin II receptor (Homo sapiens) (P30556 whole entry): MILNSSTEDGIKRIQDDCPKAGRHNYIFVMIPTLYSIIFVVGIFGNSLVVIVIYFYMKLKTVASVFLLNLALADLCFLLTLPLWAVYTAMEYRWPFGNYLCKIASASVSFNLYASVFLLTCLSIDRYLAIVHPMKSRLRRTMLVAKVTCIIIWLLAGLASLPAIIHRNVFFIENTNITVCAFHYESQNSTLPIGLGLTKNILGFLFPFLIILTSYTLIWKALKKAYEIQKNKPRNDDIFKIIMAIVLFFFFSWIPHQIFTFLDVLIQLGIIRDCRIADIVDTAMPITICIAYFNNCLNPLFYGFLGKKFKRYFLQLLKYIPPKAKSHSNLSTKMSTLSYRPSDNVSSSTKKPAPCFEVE
Sequence of Histamine H1 receptor (Homo sapiens) (P35367 whole entry): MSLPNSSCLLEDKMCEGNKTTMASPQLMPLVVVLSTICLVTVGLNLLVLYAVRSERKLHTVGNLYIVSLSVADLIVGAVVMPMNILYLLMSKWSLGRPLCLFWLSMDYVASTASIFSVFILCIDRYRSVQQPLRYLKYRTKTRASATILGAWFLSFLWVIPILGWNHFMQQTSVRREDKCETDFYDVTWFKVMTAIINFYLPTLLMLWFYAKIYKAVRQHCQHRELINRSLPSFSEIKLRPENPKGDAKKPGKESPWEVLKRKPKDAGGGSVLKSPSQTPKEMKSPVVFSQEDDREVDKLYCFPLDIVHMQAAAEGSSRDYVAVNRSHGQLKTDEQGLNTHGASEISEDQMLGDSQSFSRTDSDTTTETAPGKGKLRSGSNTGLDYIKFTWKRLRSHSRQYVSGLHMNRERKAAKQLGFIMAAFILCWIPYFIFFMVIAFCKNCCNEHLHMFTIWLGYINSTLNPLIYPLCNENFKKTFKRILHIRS

Cc1c(N2CCNCC2)nc2ccc(Br)cc2c1C(=O)NC[C@H](CCC(=O)O)c1ccccc1Cl [BAY-403]
inactive: [1] 14.1% | [2] 16.9% | [3] -3.2%

Cc1c(N2CCCC2)nc2ccc(Br)cc2c1C(=O)NC[C@H](CCC(=O)O)c1ccccc1Cl [BAY-6672]
inactive: Oryctolagus cuniculus 25% | [4]; Compound concentration 0.001 uM 3% | [4]; Compound concentration 0.01 uM -2% | [4]; Compound concentration 0.1 uM -3% | [4]; Compound concentration 1.0 uM -0% | [4]; Compound concentration 10.0 uM 20% | [5] 10% | [6] 1% | [7] 7% | [8] 15% | [9] -0% | [10] 9% | [11] 3% | [12] -3% | [13] -7% | [14] 11% | [15] 3% | [16] 3% | [17] 14%
